In PubChem BioAssay (NCI):
Where “and” joins values, the source holds several entries; their conditions need not be identical. Identical values can stand only once.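 Compound exposure: 48 hours, 5 concentrations, 96-well plates. GI50: concentration for 50% inhibition of growth. Definition used: TGI = concentration required for complete inhibition of growth.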

Legend:
Test in all cases: DTP human tumour cell line panel, 48 h
[1] = tested on: HL-60(TB) leukemia
[2] = tested on: HCC-2998 colon
[3] = tested on: A549 NSCLC
[4] = tested on: ACHN renal
[5] = tested on: M19-MEL melanoma
[6] = tested on: HT29 colon
[7] = tested on: NCI-H23 lung
[8] = tested on: K-562 leukemia
[9] = tested on: SW-620 colon
[10] = tested on: DMS 114 small cell lung
[11] = tested on: SF-268 CNS
[12] = tested on: DLD-1 colon
[13] = tested on: SF-295 CNS
[14] = tested on: CCRF-CEM leukemia
[15] = tested on: 786-0 renal
[16] = tested on: SK-MEL-5 melanoma
[17] = tested on: CAKI-1 renal
[18] = tested on: HOP-92 NSCLC
[19] = tested on: HCT-116 colon
[20] = tested on: U251 CNS
[21] = tested on: OVCAR-4 ovarian
[22] = tested on: NCI-H522 lung
[23] = tested on: EKVX NSCLC
[24] = tested on: DMS 273 small cell lung
[25] = tested on: HOP-18 NSCLC
[26] = tested on: SN12C renal
[27] = tested on: UO-31 renal
[28] = tested on: RXF 393 renal
[29] = tested on: SK-OV-3 ovarian
[30] = tested on: UACC-257 melanoma
[31] = tested on: SK-MEL-2 melanoma
[32] = tested on: HCT-15 colon
[33] = tested on: SK-MEL-28 melanoma
[34] = tested on: TK-10 renal
[35] = tested on: HOP-62 NSCLC
[36] = tested on: OVCAR-8 ovarian
[37] = tested on: OVCAR-5 ovarian
[38] = tested on: NCI-H460 lung
[39] = tested on: SNB-75 CNS
[40] = tested on: LXFL 529 NSCLC
[41] = tested on: A498 renal
[42] = tested on: M14 melanoma
[43] = tested on: KM12 colon
[44] = tested on: XF 498 CNS
[45] = tested on: SNB-19 CNS
[46] = tested on: IGROV1 ovarian
[47] = tested on: MALME-3M melanoma
[48] = tested on: UACC-62 melanoma
[49] = tested on: KM20L2 colon
[50] = tested on: NCI-H226 lung
[51] = tested on: SF-539 CNS
[52] = tested on: SNB-78 CNS
[53] = tested on: RPMI-8226 leukemia
[54] = tested on: NCI/ADR-RES ovarian
[55] = tested on: MDA-N
[56] = tested on: COLO 205 colon
[57] = tested on: T-47D breast
[58] = tested on: MDA-MB-231 breast
[59] = tested on: SR leukemia
[60] = tested on: LOX IMVI melanoma
[61] = tested on: DU-145 prostate
[62] = tested on: HS 578T breast
[63] = tested on: BT-549 breast
[64] = tested on: MCF7 breast
[65] = tested on: MOLT-4 leukemia
[66] = tested on: MDA-MB-435
[67] = tested on: PC-3 prostate
[68] = tested on: OVCAR-3 ovarian

CN(C)C(=S)/N=c1\ssc(=S)n1-c1ccccc1
TGI [1]: 44.4 µM
TGI [2]: 46.3 µM
TGI [3]: 81.8 µM
TGI [4]: 32.1 µM
TGI [5]: 30.4 µM
TGI [6]: 37.5 µM
TGI [7]: 77.5 µM
TGI [8]: 42.6 µM
TGI [9]: 22.6 µM
TGI [10]: 31.1 µM
TGI [11]: 32.8 µM
TGI [12]: 26.9 µM
TGI [13]: 46.6 µM
TGI [14]: > 100 µM
TGI [15]: 30.5 µM
TGI [16]: > 100 µM
TGI [17]: 33.3 µM
TGI [18]: 34.7 µM
TGI [19]: 27.2 µM
TGI [20]: 30.2 µM
TGI [21]: 29.4 µM
TGI [22]: 27.8 µM
TGI [23]: 43.6 µM
TGI [24]: 38.3 µM
TGI [25]: > 100 µM
TGI [26]: 28.8 µM
TGI [27]: 44.1 µM
TGI [28]: 33 µM
TGI [29]: > 100 µM
TGI [30]: 29.6 µM
TGI [31]: 21.6 µM
TGI [32]: 28.9 µM
TGI [33]: 30.5 µM
TGI [34]: 31.4 µM
TGI [35]: 74.2 µM
TGI [36]: 28.5 µM
TGI [37]: 29.9 µM
TGI [38]: 33.1 µM
TGI [39]: 34.1 µM
TGI [40]: 25.1 µM
TGI [41]: 57.7 µM
TGI [42]: 28.6 µM
TGI [43]: 22.7 µM
TGI [44]: 27.9 µM
TGI [45]: > 100 µM
TGI [46]: 39.1 µM
TGI [47]: 31 µM
TGI [48]: 30.6 µM
TGI [49]: 33.2 µM
TGI [50]: 26.9 µM
TGI [51]: 30.5 µM
TGI [52]: 40 µM

CN(C)CCNC(=O)c1cccc2cc([N+](=O)[O-])ccc12
TGI [53]: 2.29 µM and 0.705 µM
TGI [54]: 5.27 µM
GI50 [1]: 0.608 µM and 0.175 µM
TGI [1]: 3.02 µM and 0.541 µM
GI50 [2]: 1.54 µM and 0.213 µM
TGI [2]: 3.74 µM and 0.986 µM
GI50 [3]: 0.183 µM
TGI [3]: 2.22 µM
GI50 [4]: 0.384 µM and 0.127 µM
TGI [4]: 2.94 µM and 0.604 µM
TGI [5]: 0.902 µM
GI50 [6]: 0.681 µM and 0.189 µM
TGI [6]: 4.96 µM and 1.07 µM
GI50 [7]: 1.69 µM and 0.211 µM
TGI [7]: 6.68 µM and 0.758 µM
GI50 [8]: 0.579 µM and 0.123 µM
GI50 [9]: 0.519 µM and 0.18 µM
TGI [9]: 17.7 µM and 5.64 µM
TGI [10]: 0.743 µM
TGI [55]: 6.23 µM
GI50 [11]: 1.87 µM and 0.22 µM
TGI [11]: 10.9 µM and 1.16 µM
TGI [12]: 1.55 µM
GI50 [13]: 0.989 µM and 0.414 µM
TGI [13]: 3.77 µM and 2.66 µM
GI50 [14]: 0.719 µM and 0.141 µM
TGI [14]: 6.07 µM and 0.939 µM
GI50 [56]: 0.893 µM and 0.217 µM
GI50 [15]: 1.62 µM and 0.254 µM
TGI [15]: 8.14 µM and 3.53 µM
TGI [57]: 16.3 µM
GI50 [16]: 1.65 µM and 0.213 µM
TGI [16]: 4.92 µM and 0.774 µM
TGI [17]: 16.4 µM
TGI [18]: 1.34 µM
GI50 [19]: 0.513 µM and 0.0724 µM
TGI [58]: 6.21 µM
GI50 [20]: 2.19 µM and 0.233 µM
TGI [20]: 11.9 µM and 2.79 µM
GI50 [21]: 2.1 µM and 0.311 µM
TGI [22]: 2.88 µM
TGI [59]: 0.132 µM
TGI [23]: 6.33 µM and 2.28 µM
GI50 [60]: 0.566 µM and 0.129 µM
TGI [24]: 0.722 µM
TGI [25]: 4.4 µM
GI50 [26]: 1.69 µM and 0.178 µM
TGI [26]: 7.57 µM and 2.24 µM
GI50 [27]: 1.28 µM and 0.168 µM
TGI [27]: 4.6 µM and 1 µM
TGI [28]: 0.471 µM
GI50 [29]: 3.48 µM and 0.535 µM
TGI [29]: 33.1 µM and 14.5 µM
TGI [61]: 17.1 µM
TGI [30]: 0.897 µM
GI50 [32]: 1.71 µM and 0.196 µM
TGI [32]: 11.5 µM and 1.38 µM
GI50 [33]: 1.83 µM and 0.279 µM
TGI [33]: 4.2 µM and 0.977 µM
TGI [62]: 7.16 µM
GI50 [34]: 0.816 µM and 0.155 µM
TGI [34]: 4.74 µM and 0.591 µM
TGI [63]: 13.8 µM
TGI [64]: 15.3 µM
GI50 [65]: 0.292 µM and 0.0829 µM
TGI [65]: 1.25 µM and 0.407 µM
GI50 [35]: 1.19 µM and 0.224 µM
TGI [35]: 4.13 µM and 1.23 µM
GI50 [36]: 0.605 µM and 0.157 µM
TGI [36]: 7.43 µM and 1.65 µM
TGI [37]: 5.47 µM and 0.87 µM
GI50 [38]: 0.39 µM
TGI [38]: 2.05 µM
GI50 [39]: 1.37 µM and 0.38 µM
TGI [39]: 5.77 µM and 1.08 µM
TGI [40]: 1.83 µM
GI50 [41]: 1.19 µM and 0.185 µM
TGI [41]: 4.53 µM and 0.91 µM
GI50 [42]: 1.6 µM and 0.441 µM
TGI [42]: 3.32 µM and 1.2 µM
TGI [66]: 7.7 µM
TGI [44]: 1.04 µM
GI50 [45]: 2.55 µM and 0.342 µM
TGI [45]: 16.1 µM and 2.38 µM
GI50 [46]: 1.79 µM and 0.245 µM
TGI [46]: 14.2 µM and 2.32 µM
GI50 [47]: 1.33 µM and 0.179 µM
TGI [47]: 2.75 µM and 0.621 µM
TGI [67]: 9.44 µM
TGI [49]: 0.722 µM
GI50 [51]: 0.886 µM and 0.146 µM
TGI [51]: 2.34 µM and 0.606 µM
TGI [52]: 1.61 µM
GI50 [68]: 2.36 µM and 0.332 µM
TGI [68]: 11.7 µM and 2.26 µM

COc1ccc([C@@H]2CC(=O)NCCCNCCCCNCCCN2)cc1
TGI [53]: > 100 µM
TGI [1]: > 100 µM
TGI [2]: > 100 µM
TGI [3]: > 100 µM
TGI [4]: > 100 µM
TGI [5]: > 100 µM
TGI [6]: > 100 µM
TGI [7]: > 100 µM
TGI [8]: > 100 µM
TGI [9]: > 100 µM
TGI [10]: > 100 µM
TGI [11]: > 100 µM
TGI [12]: > 100 µM
TGI [13]: > 100 µM
TGI [14]: > 100 µM
TGI [56]: > 100 µM
TGI [15]: > 100 µM
TGI [16]: > 100 µM
TGI [17]: > 100 µM
TGI [18]: > 100 µM
TGI [19]: > 100 µM
TGI [20]: > 100 µM
TGI [21]: > 100 µM
TGI [22]: > 100 µM
TGI [59]: > 100 µM
TGI [23]: > 100 µM
TGI [24]: > 100 µM
TGI [25]: > 100 µM
TGI [26]: > 100 µM
TGI [27]: > 100 µM
TGI [28]: > 100 µM
TGI [29]: > 100 µM
TGI [30]: > 100 µM
TGI [31]: > 100 µM
TGI [32]: > 100 µM
TGI [33]: > 100 µM
TGI [34]: > 100 µM
TGI [65]: > 100 µM
TGI [35]: > 100 µM
TGI [36]: > 100 µM
TGI [37]: > 100 µM
TGI [38]: > 100 µM
TGI [39]: > 100 µM
TGI [40]: > 100 µM
TGI [41]: > 100 µM
TGI [42]: > 100 µM
TGI [43]: > 100 µM
TGI [44]: > 100 µM
TGI [45]: > 100 µM
TGI [46]: > 100 µM
TGI [47]: > 100 µM
TGI [48]: > 100 µM
TGI [49]: > 100 µM
TGI [50]: > 100 µM
TGI [51]: > 100 µM
TGI [52]: > 100 µM
